Each structure is given as a SMILES string.

The text below walks through data of ChEMBL document CHEMBL3045333, “Asymmetric aza-Michael additions of 4-nitrophthalimide to nitroalkenes and preliminary study of the products for herbicidal activities” (2013).

What all share (type): functional
The test system of experiment [1] is Echinochloa crus-galli. The experiment is described as follows: Herbicidal activity against Echinochloa crus-galli (barnyard grass) assessed as reduction of radical growth in dark conditions at 100 ug/ml treated twice. Conditions: for inhibition of growth at 100 µg/mL: Echinochloa crus-galli, read-out: GI.
Experiment [2] has as its system Echinochloa crus-galli. The experiment is described as follows: Herbicidal activity against Echinochloa crus-galli (barnyard grass) assessed as reduction of seedling height growth in light conditions at 100 ug/ml treated twice. The conditions noted are these: for inhibition of growth at 100 µg/mL: Echinochloa crus-galli, read-out: GI.
The test system of experiment [3] is Echinochloa crus-galli. Kind of experiment: Herbicidal activity against Echinochloa crus-galli (barnyard grass) assessed as reduction of radical growth in dark conditions at 10 ug/ml treated twice. Conditions: for inhibition of growth at 10 µg/mL: Echinochloa crus-galli, read-out: GI.
Experiment [4] deals with Echinochloa crus-galli. The experiment is described as follows: Herbicidal activity against Echinochloa crus-galli (barnyard grass) assessed as reduction of seedling height growth in light conditions at 10 ug/ml treated twice. Conditions: read-out: GI.

On to `O=C1c2ccc([N+](=O)[O-])cc2C(=O)C1C(C[N+](=O)[O-])c1ccc(Cl)cc1Cl` (centres undefined), for which the inhibition of growth at 100 µg/mL in experiment [1] was 10%; in experiment [2], 0%. Moreover, the values for the inhibition of growth at 10 µg/mL in experiment [3] and in experiment [4] were 5% and 0%, respectively.
In the case of `O=C1c2ccc([N+](=O)[O-])cc2C(=O)C1C(C[N+](=O)[O-])c1cccc(Cl)c1` (centres undefined), the inhibition of growth at 100 µg/mL in experiment [1] and in experiment [2] was 0% each time. For the same molecule, the inhibition of growth at 10 µg/mL in experiment [3] and in experiment [4] was 0% each time.
`O=C1c2ccc([N+](=O)[O-])cc2C(=O)C1C(C[N+](=O)[O-])c1ccccc1Cl` (centres undefined): the inhibition of growth at 100 µg/mL in experiment [1] turned out to be 59.6%; in experiment [2], 93.2%. Besides, the inhibition of growth at 10 µg/mL in experiment [3] and in experiment [4] was 0% throughout.
Regarding `O=C1c2ccc([N+](=O)[O-])cc2C(=O)C1C(C[N+](=O)[O-])c1ccc(Cl)cc1` (racemic), the inhibition of growth at 100 µg/mL in experiment [1] came to 10%. The “growth inhibition (GI)” value is listed as 55.5% in experiment [2] and 5% in experiment [3].
Regarding `O=C1c2ccc([N+](=O)[O-])cc2C(=O)C1C(C[N+](=O)[O-])c1ccc(F)cc1` (racemic), the inhibition of growth at 100 µg/mL in experiment [1] is 0%. For the same molecule, the “growth inhibition (GI)” value in experiment [2] was determined as 64.1%. Also, the inhibition of growth at 10 µg/mL in experiment [3] is 0%.
`O=C1c2ccc([N+](=O)[O-])cc2C(=O)C1C(C[N+](=O)[O-])c1ccc(F)cc1` (stereo in doubt; 4bd): in experiment [2], the “growth inhibition (GI)” value was found to be 22%. Also, the inhibition of growth at 10 µg/mL in experiment [4] stood at 0%.
Take `O=C1c2ccc([N+](=O)[O-])cc2C(=O)C1C(C[N+](=O)[O-])c1ccc(Cl)cc1` (stereo in doubt; 4be): the “growth inhibition (GI)” value is 5% in experiment [1], 9.7% in experiment [2] and 0% in experiment [3]. Also, the inhibition of growth at 10 µg/mL in experiment [4] was determined as 0%.
